The results in this text go back to PubChem BioAssay (NCI).

Common to all, as to assay: inhibition of tumour cell growth, NCI panel, 48 h
The subject of experiment [1] is PC-3 prostate.
Experiment [2] relates to HOP-62 NSCLC.
For experiment [3], the system named is SNB-75 CNS.
Experiment [4] deals with HCT-15 colon.
Experiment [5] has as its system K-562 leukemia.
The test system of experiment [6] is NCI-H226 lung.
In experiment [7] the test system is DU-145 prostate.
Experiment [8] has as its system NCI-H522 lung.
The subject of experiment [9] is UO-31 renal.
In experiment [10] the test system is MDA-N.

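The compound was tested at five concentrations on cells cultured in 96-well plates, with a 48-hour exposure period. GI50 = concentration required for 50% inhibition of growth. The concentration for full growth arrest is given as TGI.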

For the molecule `COc1cc(S(=O)(=O)Nc2ccc(C(=O)/C=C/c3ccc(O)cc3)cc2)ccc1F`, the GI50 in [1] was greater than 100 µM; in [2], greater than 100 µM; in experiment [3], 87.5 µM; in [4] it was greater than 100 µM; in [5] it was greater than 100 µM; in [6] it was 22.4 µM. Besides, in experiment [7], the GI50 was greater than 100 µM. The TGI in experiment [1] is greater than 100 µM; in experiment [2], greater than 100 µM; in [3], greater than 100 µM; in experiment [4], greater than 100 µM; in [5], greater than 100 µM; in experiment [6], 76.2 µM. In experiment [7], the TGI was greater than 100 µM.

With `CC1=NN(c2nc(N)nc(-c3sccc3N)n2)C(C)(C)C1`, the TGI in [2], in [8], in experiment [9], in experiment [3], in experiment [4] and in [5] was greater than 100 µM each time. Besides, the TGI in experiment [6], in experiment [7] and in experiment [10] was greater than 100 µM throughout.

For the molecule `COC(=O)C1=C(C(=O)OC)SC(=CC#CC=C2SC(C(=O)OC)=C(C(=O)OC)S2)S1`, the TGI was 12.2 µM in [2]; 54.8 µM in experiment [8]; 14.1 µM in experiment [9]; 19.3 µM in [3]; greater than 45.1 µM in [4]; greater than 100 µM in experiment [5]. This molecule registered a TGI in [6] of 35.4 µM.

In the case of `CCC1=C(C(C)=O)[C@@H]2CCCCC[C@@H](C(=O)OC)C2C1=O` (stereo not given in full), the TGI in experiment [2], in [8], in experiment [9], in [3], in experiment [4] and in experiment [5] was greater than 100 µM in each case.

Regarding `Cn1c(=O)c2c(nc3n(Cc4ccccc4)c(=O)c(NCCCBr)cn23)n(C)c1=O`, the TGI is greater than 100 µM in experiment [1]; greater than 100 µM in experiment [2]; greater than 100 µM in experiment [8]; greater than 100 µM in experiment [9]; 97.7 µM in experiment [3]; greater than 100 µM in experiment [4]. Also, the TGI in experiment [5], in [6] and in experiment [7] was greater than 100 µM in each case.

In the case of `CC(C)N1CC2CC(CN(C(=O)c3ccccc3)C2)C1`, the TGI in experiment [2], in experiment [8], in [9], in experiment [3], in [4] and in [5] was greater than 100 µM throughout. In addition, the TGI in [6] is greater than 100 µM.

As for `CS(=O)(=O)Nc1ccc2c(c1)N(S(C)(=O)=O)CC2CCl` (stereo not given), the TGI in [1], in [2], in experiment [8], in [9], in experiment [3] and in [4] was greater than 100 µM each time. The TGI in experiment [5], in experiment [6] and in experiment [7] was greater than 100 µM each time.

For `Cc1cc(C)c2c(=O)cc(-c3cccc(F)c3)[nH]c2n1`, the TGI in [1] is greater than 49.1 µM; in [2], greater than 79.9 µM; in experiment [8], 0.141 µM; in experiment [9], greater than 100 µM; in experiment [3] it was greater than 100 µM; in experiment [4] it was greater than 38.2 µM. Further, the TGI in experiment [5] is greater than 32.1 µM; in [6], 7.4 µM; in [7] it was greater than 45.3 µM.

On to `COC(=O)C1C(C(=O)OC)C2(OC(c3ccc(Cl)cc3)=CC2=O)C12OC(c1ccc(Cl)cc1)=CC2=O` (stereo not given), for which the TGI is 55.8 µM in experiment [1]; 36.1 µM in [8]; 33.6 µM in experiment [9]; 35.2 µM in experiment [4]; 53.5 µM in [5]; greater than 100 µM in experiment [6]. The TGI in experiment [7] is greater than 100 µM; in [10], 47.3 µM.

Take `CSC(SC)=C(C(=O)O)P(=O)(O)O`: the TGI in experiment [1], in experiment [2], in [8], in experiment [4], in [6] and in experiment [7] was greater than 100 µM in each case. The TGI in experiment [10] is greater than 100 µM.

As to `O=S(=O)(c1cc(Cl)ccc1Cl)n1ccnc1`, the TGI in experiment [1] is greater than 100 µM; in experiment [2], greater than 100 µM; in experiment [8] it was greater than 100 µM; in [9], greater than 100 µM; in experiment [3] it was greater than 100 µM; in experiment [4], 89.5 µM. In addition, the TGI in experiment [5] was greater than 100 µM; in experiment [6], 52.8 µM; in experiment [7], greater than 100 µM.

As for `COc1ccc(C2C3=C(COC3=O)Oc3cc4c(cc32)OCO4)c(OC)c1` (stereo not given), the TGI in experiment [1] is greater than 100 µM; in experiment [2], greater than 100 µM; in experiment [9] it was greater than 100 µM; in experiment [3] it was 46.8 µM; in experiment [4], greater than 100 µM; in [5], 87.3 µM. The TGI in experiment [6] and in [7] was greater than 100 µM throughout.

For the molecule `COc1cc(-c2n/c(=C\c3c(O)[nH]c4ccc(Cl)cc34)cc3c2=Nc2ccccc2-3)ccc1F`, the GI50 in experiment [1] is 2 µM; in experiment [2], 1.17 µM; in experiment [9] it was 1.12 µM; in experiment [3], 1.69 µM; in experiment [4] it was 2.49 µM; in [5] it was 2.22 µM. Also, the GI50 in experiment [6] was 2.19 µM; in [7], 2.18 µM. Moreover, the TGI is 5.88 µM in [1]; 2.52 µM in experiment [2]; 2.5 µM in experiment [9]; 4.6 µM in experiment [3]; 6.98 µM in experiment [4]; 5.98 µM in experiment [5]. Also, the values for the TGI in experiment [6] and in experiment [7] were 8.15 µM and 4.8 µM, respectively.

For `NCCCCNCCCNC(=O)c1nc(-c2nc(CCN)sc2Cl)sc1Cl`, the TGI in experiment [2] was greater than 100 µM; in [8], 55.9 µM; in experiment [9], greater than 100 µM; in experiment [3], greater than 100 µM; in experiment [4] it was greater than 100 µM; in experiment [5], greater than 100 µM. In addition, the TGI in experiment [6] was greater than 100 µM.

With `COC(=O)C1CCc2sc3ncnc(Nc4cn[nH]c4C(=O)Nc4ccc(CN5CCN(C)CC5)cc4)c3c21` (stereo not given), the GI50 in [2] was 0.453 µM; in experiment [8] it was 0.304 µM; in experiment [9], 0.455 µM; in [3], 0.0684 µM; in experiment [4] it was 0.423 µM; in [5], 0.254 µM. The GI50 in experiment [6] is 0.588 µM. In addition, the TGI is 19.5 µM in [2]; 1.63 µM in experiment [8]; 9.51 µM in experiment [9]; 2.87 µM in experiment [3]; greater than 100 µM in experiment [4]; 4.15 µM in experiment [5]. In addition, the TGI in [6] was greater than 100 µM.

`COc1cccc2c1C(=O)c1c(O)c3c(c(O)c1C2=O)C[C@H](O)C[C@@H]3OC1CC(N)C(O)C(C)O1` (stereo not given in full): the TGI in [1] was determined as 12 µM; in experiment [2] it was 10.5 µM; in [8] it was 5.86 µM; in [9], 19.7 µM; in experiment [3], 15.3 µM; in experiment [4], 58 µM. In addition, the TGI came out at 10.1 µM in experiment [5], 2.81 µM in experiment [6] and 11.6 µM in experiment [7].

In the case of `CC[C@H](Nc1nc(C)nc(N)c1C#N)c1nc2cccc(NCc3ccc(C(=O)NO)cc3)c2c(=O)n1-c1ccccc1`, the GI50 was 1.47 µM in experiment [1]; 1.49 µM in [2]; 1.54 µM in experiment [8]; 1.21 µM in [9]; 1.73 µM in [3]; 2.2 µM in experiment [5]. Besides, the GI50 is 1.72 µM in [6] and 2.01 µM in experiment [7]. Besides, the TGI was 4.04 µM in experiment [1]; 3.09 µM in experiment [2]; 3.65 µM in experiment [8]; 2.47 µM in experiment [9]; 7.27 µM in experiment [3]; greater than 100 µM in experiment [5]. Besides, the TGI in [6] was 4.44 µM; in experiment [7] it was 4.89 µM.

As for `CN(C)CCNC(=O)c1cc(Cl)cc2ccc(-c3ccccc3)nc12`, the TGI stood at 10.3 µM in experiment [2]; 16 µM in [8]; 4.76 µM in experiment [9]; 14 µM in [3]; 9.49 µM in experiment [4]; 8.17 µM in experiment [5]. The same molecule displayed a TGI in experiment [6] of 7.02 µM.

Turning to `C=C1N(C=O)C(C)(C)N(O)C1(C)C`, the TGI in experiment [1], in experiment [2], in experiment [9], in experiment [3], in [4] and in experiment [6] was greater than 100 µM each time. The molecule also registered a TGI in experiment [7] greater than 100 µM.

On to `O=S(=O)(O)c1ccc(N=Nc2ccc(N=Nc3ccc(/C=C/c4ccc(N=[N+]([O-])c5ccc(/C=C/c6ccc(N=Nc7ccc(N=Nc8ccc(S(=O)(=O)O)cc8)cc7)cc6S(=O)(=O)O)c(S(=O)(=O)O)c5)cc4S(=O)(=O)O)c(S(=O)(=O)O)c3)cc2)cc1`, for which the TGI in experiment [2], in [8], in experiment [9], in experiment [3], in experiment [4] and in [5] was greater than 100 µM each time. The molecule further gave a TGI in experiment [6] greater than 100 µM.

On to `Cc1ccc(C(=O)N/N=C(\N=Nc2ccccc2)c2ccc(N(C)C)cc2)cc1`, for which the TGI in [1], in [8], in experiment [9], in experiment [4], in [5] and in [6] was greater than 100 µM throughout. In addition, the TGI in experiment [7] and in experiment [10] was greater than 100 µM in each case.

As for `O=C(/C=C/C(=O)N1CCCC1)N1CCCC1`, the TGI in experiment [1], in [2], in [8], in experiment [9], in [4] and in experiment [5] was greater than 100 µM each time. Also, the TGI in experiment [7] and in experiment [10] was greater than 100 µM throughout.

For the molecule `CCOC(=O)C1(C#N)C(c2ccccc2)CC(O)(c2ccc(Cl)cc2)C(C(=O)c2ccc(Cl)cc2)C1c1ccccc1` (stereo not given), the TGI was greater than 100 µM in [2]; greater than 100 µM in [8]; greater than 100 µM in experiment [9]; 48.9 µM in experiment [3]; greater than 100 µM in experiment [4]; greater than 100 µM in experiment [6].

Turning to `CO[C@H]1SC[C@H](OC(C)=O)[C@H](OC(C)=O)[C@H]1OC(C)=O`, the TGI in [2], in experiment [8], in experiment [9], in experiment [4], in experiment [5] and in experiment [6] was greater than 100 µM in each case. For the same molecule, the TGI in experiment [7] and in experiment [10] was greater than 100 µM each time.

Regarding `O=C1C=CC(=O)N1n1c(-c2ccccc2)n[nH]c1=O`, the TGI in experiment [1], in [2], in [8], in experiment [4], in [5] and in experiment [6] was greater than 100 µM in each case. Also, the TGI in experiment [7] and in [10] was greater than 100 µM each time.

For `O=c1cc(-c2ccncc2)[nH]c2cc3c(cc12)OCO3`, the TGI in experiment [2], in experiment [9], in [3], in experiment [4], in [6] and in experiment [7] was greater than 100 µM each time. The molecule also displayed a TGI in experiment [10] greater than 100 µM.

Turning to `Cc1cc(C)nc(NS(=O)(=O)c2ccc(Nc3c4ccccc4nc4c(C(=O)N5CCN(CCOS(C)(=O)=O)CC5)cccc34)cc2)n1`, the TGI in experiment [2], in experiment [9], in [3], in experiment [4], in [5] and in experiment [6] was greater than 100 µM in each case.

For the molecule `CCCCOc1ccc(OCCCCCCCCCC[N+](C)(C)C)cc1`, the TGI was 13.7 µM in experiment [2]; 5.22 µM in experiment [8]; 23 µM in experiment [9]; 6.44 µM in [3]; 30.5 µM in experiment [4]; 15.4 µM in experiment [5]. This molecule also displayed a TGI in experiment [6] of 15.2 µM.

Consider `COc1ccccc1CN=C1Nc2ccncc2S(=O)(=O)N1c1ccccc1`, for which the TGI in [1], in experiment [8], in experiment [9], in experiment [4], in [5] and in [6] was greater than 100 µM throughout. The molecule further displayed a TGI in [7] greater than 100 µM.
